# Assays:
# [1] = system: Sprague Dawley rats; assay: Oral toxicity of Compound 1 administered daily for 11 days; type: in vivo; conditions: 300 mg/kg and 1000 mg/kg oral daily for 11 days in CMC 0.1%
# Protocol: Oral toxicity of Compound 1 when administered daily for 11 days was investigated. Compound 1 in CMC 0.1% as administered at the very high doses of 300 mg/kg and the limit dose of 1000 mg/kg to groups of four Sprague Dawley rats (two of each gender). Vehicle was administered to a third group.
# (§1) The formulation of Compound 1 in CMC 0.1% was stable over a seven day period at both 4° C., 25° C. and 40° C. Fresh batches of Compound 1 were supplied after day seven. Bodyweights were measured immediately before administration, then at day eight and again at culling on day 12. All rats were observed daily for signs of toxicity throughout the experimental period. At necropsy, gross examination of the external surface of the body, all orifices and the thoracic and abdominal cavities and their contents was carried out. Liver, kidney, adrenals, spleen and gonads were weighed. Terminal hematology, serum biochemistry and histology of the liver, spleen and bone marrow was done.
# [2] = system: contractile response of the aortic ring to noradrenaline; assay: Vasodilatory activity in the rat aortic ring assay; design: species or system rat (Sprague-Dawley); conditions: test compound 1 μg/ml
# Protocol: The vasodilatory capacity of test compounds was examined ex vivo using the rat aortic ring assay.
# Male Sprague-Dawley rats (250±50 g) were euthanized with 80% CO2 and 20% O2. The thoracic aorta was excised and quickly mounted in organ-baths as described (Chin-Dusting et al. 2001). Full concentration-contractile curves were obtained to noradrenaline ([…]) with and without test compounds delivered at a concentration of 1 μg/ml. Experiments were repeated in n=5 different rings from 5 different animals. Only one compound at any one concentration was tested on any one ring from any one animal. Sigmoidal dose response curves were fitted for the data and the logEC50 calculated (Prism 4, GraphPad Software). The difference in these values between the presence and absence of test compound was calculated using a two-tailed paired t test. The effects of β-oestrodiol and vehicle alone were examined as a positive and negative control respectively.
# [3] = system: AA-induced ear inflammation; assay: Murine ear inflammation induced by arachidonic acid; type: in vivo, mice (BALB/c); conditions: for Increase in ear thickness (mean ± SD, ×0.01 mm): 25 mg/kg i/p, 1 hr post-AA application
# Excerpt: Compounds were examined for their ability to inhibit ear swelling in mice induced by the topical application of arachidonic acid (AA). The inflammatory response due AA, the immediate precursor of the eicosanoids, is due to formation of AA metabolites via both the cyclooxygenase (COX) and lipoxygenase (LOX) pathways (Young et al. 1984). AA induces an increase in both PGE2 and LTC4 synthesis which precedes the increase in ear thickness (Opas et al. 1985; Chang et al. 1986).
# Female BALB/c mice (ARC, WA, Australia), weighing 15-21 g were injected with Compound 2 delivered in polyethylene glycol (PEG) 400:phosphate buffered saline (PBS) 1:1 intraperitoneally (i/p) at a dose of 25 mg/kg either 30 min prior to or immediately before the application of AA to the ears. Mice were anaesthetized using isoflurane and baseline thickness of both ears was measured using a spring micrometer. Each mouse received a total of 20 μL of AA in ethanol (50 mg/ml) applied to the inner and outer surfaces of each pinna (i.e. 0.5 mg AA per ear). Mice were anaesthetized again to remeasure the ears at 1 hr post-AA application.
# The difference in ear swelling pre- and post-application of AA for each ear was calculated, and the average for the two ears of each mouse calculated. The difference in mean swelling of each test group compared to the group given vehicle alone was calculated using a two-tailed unpaired t test (Prism 4, GraphPad Software).
# [4] = system: NO synthesis in mouse macrophage cell line RAW 264.7; assay: Inhibition of nitric oxide synthesis (Griess reaction); type: cell-based; conditions: 10 μM
# Protocol: Exposure of various cells (e.g. macrophages and smooth muscle cells) to bacterial LPS and proinflammatory cytokines induces iNOS which generates NO. NO production can be indirectly quantified by measurement of nitrite (NO2—), a stable breakdown product of NO. The mouse macrophage cell line RAW 264.7 was cultured in DMEM supplemented with FCS, 2 mM glutamine and 50 U/ml penicillin/streptomycin. Cells were treated with either test compound at 10 μM (in 0.125% DMSO) or vehicle alone, together with 10 ng/ml LPS. After incubation for 24 hrs, culture media was collected and analysed immediately for NO concentration using the Griess reaction (Eigler et al. 1995).
# [5] = Stability of formulation in CMC 0.1%; type: physicochemical; conditions: seven day period, 4° C., 25° C. and 40° C.
# Protocol: as §1
# [6] = system: inflammed rat air pouches (serum-treated zymozan); assay: Rat air pouch assay; type: in vivo, rats (Dark Agouti); conditions: At 1 mM application
# [7] = system: NFκB promoter activity; assay: Inhibition of NFκB promoter activity (β-lactamase reporter) in TNFα-stimulated THP-1 cells; type: cell-based, human; conditions: 5 h
# Protocol: Human macrophage THP-1 cells, modified to include the β-lactamase reporter gene, were seeded into wells of a 96-well plate (50×10^3 cells/well) in the presence of RPMI 1640 medium (70 μl). TNFα (7.5 ng/ml) and human sera (final concentration of 20%) were added to each well. Plates were incubated for 5 h at 37° C. to allow for NFkB-stimulated β-lactamase production. LiveBLAzer™ FRET B/G Substrate (CCF4-AM) was then added to assay for β-lactamase activity. Once CCFA-AM enters a cell, it is converted to negatively charged CCF4 by endogenous esterases. Excitation of this substrate at 409 nm leads to efficient FRET between the coumarin and fluorescein moieties, resulting in a green fluorescence detectable at 530 nm. The presence of β-lactamase leads to cleavage of CCF4 and results in a loss of FRET, resulting in a robust blue fluorescent signal detectable at 460 nm. Thus, activity of beta-lactamase (a marker of NFkB-promoter activity) is measured as a product to substrate ratio (blue/green fluorescence ratio: 460 nm/530 nm).
# [8] = system: female BALB/c mice; assay: Absence of gastrointestinal toxicity, gavage for 10 days; type: in vivo; conditions: 5 mg/kg via gavage for 10 days
# Protocol: Compound 2 at 5 mg/kg (n=3) or vehicle (PEG 400:PBS1:1; n=2) was administered via gavage to female BALB/c mice for 10 days. […] Histology of cecum and colon were normal.
# The diastereoisomeric mixture of Compounds 3a and 3b in PEG 400:PBS1:1 was administered to 7 week old female BALB/c mice (n=8) by gavage at 20 mg/kg daily for 10 days. There was no vehicle control group for comparison.
# Compound 4 at 5 mg/kg (n=3) or vehicle (n=2, PEG:PBS 1:1) was administered via gavage to female BALB/c mice for 10 days. […] Histology of cecum and colon were normal.
Structure (SMILES),evidence of toxicity [1],contractile response (logEC50) of the aortic ring to noradrenaline compared with vehicle [2],"Increase in ear thickness (mean ± SD, ×0.01 mm) [3] [×0.01 mm]","NO synthesis, direction of effect in words [4]",stability of the formulation [5],"number of polymorphs in the tissue sections, in words [6]",inhibition of NFκB compared to vehicle control [7],"AA-induced ear inflammation / ear thickness compared with vehicle, in words ([3]; mouse, in vivo)",adverse clinical signs [8],body weight changes versus vehicle [8],gross pathological changes at necropsy [8],histology of cecum and colon [8]
"O=C1c2ccc(O)c(Br)c2OCC1c1ccc(O)cc1 (stereo not drawn) [Compound 1, 3-(4-hydroxyphenyl)-7-hydroxy-8-bromo-chroman-4-one]",no evidence of toxicity of any kind,significantly inhibited,9.5 ± 2.3,inhibited NO synthesis,stable,–,–,–,–,–,–,–
Oc1ccc(C2COc3c(ccc(O)c3O)C2O)cc1 (stereo not drawn) [Compound 2],–,–,6.5 ± 2.9,induced it,–,suppressed the number of polymorphs,significantly (p<0.001) inhibited,significant reduction in ear thickness,no adverse clinical signs,similar,no gross pathological changes,normal
O=C1c2cc(Cl)c(O)cc2OCC1c1ccc(O)cc1 (stereo not drawn) [Compound 4],–,–,9.2 ± 3.6,induced it,–,suppressed the number of polymorphs,–,–,no adverse clinical signs,similar,no gross pathological changes,normal
